Results on twelve compounds are retold here after patent US5430150A, “Retroviral protease inhibitors” (American Cyanamid Company, priority 1992, dated 1995).

SMILES strings stand for the structures. Like-named read-outs stand apart in the source and are kept apart here.

One assay deals with HIV-1 protease (Human immunodeficiency virus type 1 group M subtype B, UniProt P04585). Briefly: biochemical. The format is biochemical. On the procedure:
IC50 values for enzyme inhibition are determined using HIV-1 and Amersham's HIV proteinase [^125 I]-scintillation proximity assay (SPA).
Amersham's HIV proteinase [^125 I]-SPA system is a commercial assay incorporating the scintillation proximity assay (SPA) principle available from Amersham International PLC, Bucks, England.
The SPA microspheres provided by Amersham have the substrate linked directly to the surface through a streptavidin-biotin link. The substrate is a 12 residue peptide designed specifically for this application utilizing current knowledge of known cleavage sites for the enzyme and analogue substrate studies. The sequence of the substrate is: [drawing 22]
The peptide is monoiodinated on the tyrosine residue and biotinylated through the epsilon-NH2 group on the lysine. It is linked to the SPA bead via a streptavidin-link. The beads are suspended in a buffer consisting of 5 mM DTT, 1 mM EDTA, 10% w/v glycerol, 0.05% W/v sodium azide, 0.01% v/v Triton X-100 in 25 mM sodium citrate buffer pH 5.5.
The enzyme cleaves at the Phe-Phe bond releasing the ^125 I fragment from the bead. This event causes the removal of detectable signal from the microsphere. […] The rate of reduction in signal is proportional to the activity of the enzyme. The obtained data is used to calculate the IC50 values found in Table 1.

The subject of assay [1] is HIV-1 strain IIIB in T lymphoid MT-2 cell lines. The experiment in a line: inhibition of growth of HIV-1 strain IIIB in T lymphoid MT-2 cell lines (metabolic MTT dye). The format is cell-based. The settings on record: Human immunodeficiency virus 1, IIIB, MT2, 120 h, 5 days; for inhibition at 0.01 µg/mL: 0.010 μg/ml, read-out: % Inhibition at concentration 0.010 μg/ml; for inhibition at 0.039 µg/mL: 0.039 μg/ml, read-out: % Inhibition at concentration 0.039 μg/ml; for inhibition at 0.156 µg/mL: 0.156 μg/ml, read-out: % Inhibition at concentration 0.156 μg/ml; for inhibition at 0.625 µg/mL: 0.625 μg/ml, read-out: % Inhibition at concentration 0.625 μg/ml; for inhibition at 2.5 µg/mL: 2.5 μg/ml, read-out: % Inhibition at concentration 2.5 μg/ml. Here is the method:
In Table 2, data is shown for the ability of these compounds to inhibit growth of HIV-1 strain IIIB in T lymphoid MT-2 cell lines. The cell line is challenged by free virons selected to result in 90-95% cell death (CPE) by day 5. The protease inhibitor compound is then added in the stated concentration. After 5 days, the surviving cells are measured using metabolic MTT dye.

[2] abbreviates: Activity of Compounds as Enzyme Inhibitor.

At HIV-1 protease (setting [2]), `CC[C@H](C)[C@H](NC(=O)[C@H](Cc1ccccc1)CC(O)(CO)CN1C[C@H]2CCCC[C@H]2C[C@H]1C(=O)NC(C)(C)C)C(=O)OC` (relative stereo) [Example 30, 3S-[2(2S*),3alpha,4abeta,8abeta]]-N-[5-[3-[[(1,1-Dimethylethyl)amino]carbonyl]octahydro-2(1H)-isoquinolinyl]4-hydroxy-4-(hydroxymethyl)-1-oxo-2-(phenylmethyl)pentyl]-L-isoleucine methyl ester] gave a concentration for half-maximal inhibition (IC50) of 415 nM.
Regarding `CC[C@H](C)[C@H](NC(=O)[C@H](Cc1ccccc1)CC(O)CN1C[C@H]2CCCC[C@H]2C[C@H]1C(=O)NC(C)(C)C)C(=O)NCc1nc2ccccc2[nH]1` (single isomer, unassigned) [Example 24A, [3S-[2[alphaS*(1R*,2R*),gammaR*(or S*),3alpha,4abeta,8abeta]]-N-[1-[[(1H-Benzimidazol-2-ylmethyl)amino]carbonyl]-2-methylbutyl]-3-[(1,1-dimethylethyl)amino]carbonyl]decahydro-gamma-hydroxy-alpha-(pentylmethyl)-2-isoquinolinepentanamide], the IC50 against HIV-1 protease (setting [2]) is 72.8 nM. Besides, in assay [1], the inhibition at 0.01 µg/mL amounted to 10.7%, the inhibition at 0.039 µg/mL was 63.3%, the inhibition at 0.156 µg/mL amounted to 100% and the inhibition at 0.625 µg/mL came to 103%. The inhibition at 2.5 µg/mL in assay [1] came to 96%.
As to `CC[C@H](C)[C@H](NC(=O)[C@H](Cc1ccccc1)CC(O)(CO)CN1C[C@H]2CCCC[C@H]2C[C@H]1C(=O)NC(C)(C)C)C(=O)NCc1nc2ccccc2[nH]1` (stereo partly drawn) [Example 21, [3S-[2[alphaS*(1R*,2R*),gammaR*(and S*),3alpha,4abeta,8abeta]]-N[1-[[(1H-Benzimidazol-2-ylmethyl)amino]carbonyl]-2-methylbutyl]-3-[[(1,1-dimethylethyl)amino]carbonyl]decahydro-gamma-hydroxy-gamma-(hydroxymethyl)alpha-(phenylmethyl)-2-isoquinolinepentanamide], at HIV-1 protease (setting [2]), half-maximal inhibition (IC50) required 69.7 nM. In assay [1], the inhibition at 0.01 µg/mL is 0%, the inhibition at 0.039 µg/mL is 8.1%, the inhibition at 0.156 µg/mL is 33% and the inhibition at 0.625 µg/mL worked out at 103%. In addition, in assay [1], the inhibition at 2.5 µg/mL worked out at 102%.
`CC[C@H](C)[C@H](NC(=O)[C@H](Cc1ccccc1)CC(O)CN1C[C@H]2CCCC[C@H]2C[C@H]1C(=O)NC(C)(C)C)C(=O)NCc1nc2ccccc2[nH]1` (stereo partly drawn) [Example 23, [3S-[2[alphaS*(1R*,2R*),gammaR* (and S*)],3alpha,4abeta,8abeta]]-N-[1-[[(1H-Benzimidazol-2-ylmethyl)amino]carbonyl]-2-methylbutyl]-3-[[(1,1-dimethylethyl)amino]carbonyl]decahydro-gamma-hydroxy-alpha-(phenylmethyl)-2-isoquinolinepentanamide] gave a concentration for half-maximal inhibition (IC50) on HIV-1 protease (setting [2]) of 72.8 nM. Besides, in assay [1], the inhibition at 0.01 µg/mL is 13%, the inhibition at 0.039 µg/mL came out at 78.7%, the inhibition at 0.156 µg/mL stood at 93.6% and the inhibition at 0.625 µg/mL came out at 95.8%. In addition, the inhibition at 2.5 µg/mL in assay [1] was found to be 98.5%.
Compound `CC[C@H](C)[C@H](NC(=O)[C@H](Cc1ccccc1)CC(O)(CO)CN1C[C@H]2CCCC[C@H]2C[C@H]1C(=O)NC(C)(C)C)C(=O)NCc1ccccn1` (stereo partly drawn) [Example 26, [3S-[2[gammaR*(and S*),gamma[alphaS*[1R*,1(R*)]]],3alpha,4abeta,8abeta]]-3-[[(1,1-Dimethylethyl)amino]carbonyl]octahydro-gamma-hydroxy-gamma-(hydroxymethyl)-N-[[2-methyl-1-[[(2-pyridinylmethyl)amino]carbonyl]butyl]-alpha-(phenylmethyl)-2(1H)-isoquinolinepentanamide] gave a concentration for half-maximal inhibition (IC50) at HIV-1 protease (setting [2]) of 738 nM.
The same measure, in the same setting: then `CC[C@H](C)[C@H](NC(=O)[C@H](Cc1ccccc1)CC(O)CN1C[C@H]2CCCC[C@H]2C[C@H]1C(=O)NC(C)(C)C)C(=O)NCc1ccccn1` (stereo partly drawn) [Example 28, [3S-[2[gammaR*(and S*),gamma[alphaS*[1R,1(R*)]]]],3alpha,4abeta,8abeta]]-3-[[(1,1-Dimethylethyl)amino]carbonyl]octahydro-gamma-hydroxy-N-[2-methyl-1-[[(2-pyridinylmethyl)amino]carbonyl]butyl]-alpha-(phenylmethyl)-2(1H)-isoqinolinepentanamide], with 154 nM; and `CC[C@H](C)[C@H](NC(=O)[C@H](Cc1ccccc1)CC(O)CN1C[C@H]2CCCC[C@H]2C[C@H]1C(=O)NC(C)(C)C)C(=O)OC` (stereo partly drawn) [Example 32, [3S-[2[2S*,4R*(and S*)],3alpha,4abeta,8abeta]-N-[5-[3-[[(1,1-Dimethylethyl)amino]carbonyl]octahydro-2(1H)-isoquinolinyl]-4-hydroxy-1-oxo-2-(phenylmethyl)pentyl]-L-isoleucinemethyl ester], with 874 nM.
At HIV-1 protease (setting [2]), `CC(C)(C)NC(=O)[C@@H]1C[C@@H]2CCCC[C@@H]2CN1CC(O)(CO)C[C@@H](Cc1ccccc1)C(=O)N[C@H]1CCCC[C@@H]1NC(=O)c1ccc2ccccc2n1` (stereo partly shown) [Example 35] had an IC50 of 68.9 nM. In assay [1], the inhibition at 0.01 µg/mL was 0%, the inhibition at 0.039 µg/mL worked out at 0%, the inhibition at 0.156 µg/mL came out at 1.97% and the inhibition at 0.625 µg/mL was 0%. Besides, in assay [1], the inhibition at 2.5 µg/mL worked out at 0%.
For the compound `CC(C)(C)NC(=O)[C@@H]1C[C@@H]2CCCC[C@@H]2CN1CC(O)C[C@@H](Cc1ccccc1)C(=O)N[C@H]1CCCC[C@@H]1NC(=O)c1ccc2ccccc2n1` (stereo partly drawn) [Example 37, [3S-[2[2S*(2R*,1R*)],3alpha,4abeta,8abeta]]-N-2-[[5-[3-[[(1,1-dimethylethyl)amino]carbonyl]octahydro-2(1H )-isoquinolinyl]-4-hydroxy-1-oxo-2-(phenylmethyl)pentyl]amino]cyclohexyl]-2-quinolinecarboxamide], on HIV-1 protease, half-maximal inhibition (IC50) required 71.8 nM. In assay [1], the inhibition at 0.01 µg/mL amounted to 0.95%, the inhibition at 0.039 µg/mL was 0%, the inhibition at 0.156 µg/mL was found to be 0% and the inhibition at 0.625 µg/mL worked out at 4.37%. Also, the inhibition at 2.5 µg/mL in assay [1] was 49.1%.
Take `CC(C)(C)NC(=O)[C@@H]1C[C@@H]2CCCC[C@@H]2CN1CC(O)(CO)C[C@@H](Cc1ccccc1)C(=O)N[C@H]1CCCC[C@@H]1NC(=O)c1cc2ccccc2cn1` (stereo partly shown) [Example 40]: on HIV-1 protease (setting [2]), the IC50 was 55.1 nM. Besides, in assay [1], the inhibition at 0.01 µg/mL came out at 0%, the inhibition at 0.039 µg/mL came to 0%, the inhibition at 0.156 µg/mL is 1.88% and the inhibition at 0.625 µg/mL stood at 0.91%. In addition, the inhibition at 2.5 µg/mL in assay [1] was determined as 13.8%.
As for `CC(C)(C)NC(=O)[C@@H]1C[C@@H]2CCCC[C@@H]2CN1CC(O)C[C@@H](Cc1ccccc1)C(=O)N[C@H]1CCCC[C@@H]1NC(=O)c1cc2ccccc2cn1` (stereo partly drawn) [Example 42, [3S-[2[alphaS*[1R*,1(2R*)]],3alpha,4abeta,8abeta]]-3-[[(1,1-Dimethylethyl)amino]carbonyl)octahydro-gamma-hydroxy-N-[2-[(3-isoquinolinylcarbonyl)amino]cyclohexyl]-alpha-(phenylmethyl)-2-(1H)-isoquinolinepentanamide], the half-maximal inhibitory concentration (IC50) against HIV-1 protease (setting [2]) is 79 nM. In addition, in assay [1], the inhibition at 0.01 µg/mL turned out to be 4.33%, the inhibition at 0.039 µg/mL is 0%, the inhibition at 0.156 µg/mL was 4.21% and the inhibition at 0.625 µg/mL stood at 12.9%. Further, in assay [1], the inhibition at 2.5 µg/mL is 86.8%.
`CC[C@H](C)[C@H](NC(=O)[C@H](Cc1ccccc1)CC(O)CN1C[C@H]2CCCC[C@H]2C[C@H]1C(=O)NC(C)(C)C)C(=O)N[C@@H](C)c1nc2ccccc2[nH]1` (stereo partly drawn) [Example 51, [3S-[2alphaS*[1R*,1(R*),2R*]],3alpha,4abeta,8abeta]]-N-[1-[[[1H-benzimidazol-2-yl)ethyl]amino]carbonyl]-2-methylbutyl]-3-[[(1,1-dimethylethyl)amino]carbonyl]octahydro-gamma-hydroxy-alpha-phenylmethyl)-2(1H)-isoquinolinepentanamide] had a half-inhibitory concentration (IC50) on HIV-1 protease of 128 nM. For the same compound, in assay [1], the inhibition at 0.01 µg/mL amounted to 1.67%, the inhibition at 0.039 µg/mL was determined as 2.24%, the inhibition at 0.156 µg/mL stood at 10.4% and the inhibition at 0.625 µg/mL was found to be 55.1%. Besides, in assay [1], the inhibition at 2.5 µg/mL came out at 72.9%.
